Counter-ions that a name gives are not always drawn.
Experiments:
UGT8 [1] = target: T1, UGT8 (Homo sapiens, UniProt Q16880); test: In vitro sulfatide (SFT) synthesis inhibition in OE19 cells, LC-MS/MS readout; type: cell-based; conditions: 72 hr, sulfatide by LC-MS/MS, read-out: Potency range (IC50, In-vitro SFT)
T1 construct: host or cells: OE19 cells
T1 sequence (Q16880 21-541): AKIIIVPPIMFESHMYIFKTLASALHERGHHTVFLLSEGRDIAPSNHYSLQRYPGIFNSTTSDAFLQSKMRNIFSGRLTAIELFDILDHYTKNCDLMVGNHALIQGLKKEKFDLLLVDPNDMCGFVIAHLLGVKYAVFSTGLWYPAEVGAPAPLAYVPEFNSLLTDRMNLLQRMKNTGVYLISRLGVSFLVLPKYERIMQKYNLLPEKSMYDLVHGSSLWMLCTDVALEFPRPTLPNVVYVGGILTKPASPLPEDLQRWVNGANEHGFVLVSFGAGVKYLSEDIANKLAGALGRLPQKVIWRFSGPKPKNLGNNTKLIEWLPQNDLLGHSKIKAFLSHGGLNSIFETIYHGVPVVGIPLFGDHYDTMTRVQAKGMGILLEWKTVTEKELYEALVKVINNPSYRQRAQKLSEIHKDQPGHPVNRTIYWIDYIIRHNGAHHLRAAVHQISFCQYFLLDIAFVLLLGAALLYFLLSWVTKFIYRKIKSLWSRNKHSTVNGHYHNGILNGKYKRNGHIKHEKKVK
In short: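 OE19 cells, 2,500/well, exposed to compound dose-downs in triplicate for 72 hr at 37° C (screening at 10 μM final). Sulfatide quantified by LC-MS/MS (C8 UPLC, isocratic, negative-ion MRM) with C17 SFT internal standard; IC50 from concentration-response curves.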

UGT8 [2] = target: T2, UGT8 (Mus musculus, UniProt Q64676); test: Acute in vivo target engagement in mouse kidney: inhibition of de novo GalCer and SFT synthesis (13C-Gal incorporation); conditions: 5 hr
T2 construct: Groups of 5 male C57Bl/6 mice, 6-9 wks of age (Charles River Laboratories); tissue Charles River Laboratories; host or cells: mouse kidney (adult C57Bl/6) and mid-/hind brain (neonatal P14-P21 mice)
T2 sequence (Q64676 21-541): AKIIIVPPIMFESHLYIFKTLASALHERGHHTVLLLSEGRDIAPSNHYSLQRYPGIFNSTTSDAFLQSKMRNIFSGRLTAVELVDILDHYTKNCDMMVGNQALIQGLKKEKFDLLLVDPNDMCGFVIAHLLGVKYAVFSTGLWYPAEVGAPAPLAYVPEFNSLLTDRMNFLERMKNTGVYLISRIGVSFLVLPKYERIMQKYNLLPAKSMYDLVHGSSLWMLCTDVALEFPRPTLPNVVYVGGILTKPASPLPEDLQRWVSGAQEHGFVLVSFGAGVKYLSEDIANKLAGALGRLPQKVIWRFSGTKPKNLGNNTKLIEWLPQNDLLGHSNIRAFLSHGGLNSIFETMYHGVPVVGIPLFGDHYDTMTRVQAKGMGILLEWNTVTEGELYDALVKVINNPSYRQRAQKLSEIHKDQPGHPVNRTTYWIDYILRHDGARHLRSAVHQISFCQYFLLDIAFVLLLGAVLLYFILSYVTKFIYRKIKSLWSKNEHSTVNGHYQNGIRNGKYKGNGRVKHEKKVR
Procedure: In vivo target engagement was initially assessed in an adult mouse kidney model assessing de novo synthesis inhibition. This model was selected because the high rate of GalCer and SFT synthesis and turnover in kidney facilitated development of an acute one-day model assessing the effect of a single administration of compound at different doses. Inhibition of de novo synthesis was determined by measuring the amount of 13C6 galactose (13C-Gal; CIL, cat #CLM-1570-pk) incorporated into GalCer and SFT.
Groups of 5 male C57Bl/6 mice, 6-9 wks of age (Charles River Laboratories) were maintained in an ALAAC-accredited vivarium with food and water ad libitum and were allowed to acclimate one week before initiating studies. Three to 5 dose groups received test article formulated in a clinically-acceptable formulation, administered by oral gavage; the control group received vehicle alone. One hr after administration of test article, animals received an intraperitoneal (i.p.) injection of 13C-Gal (3 g/kg); 5 hr after administration of test article, animals were euthanized and a kidney was removed and divided into two longitudinal samples that were snap-frozen and stored at −80° C. until processing for test article tissue exposure and lipid analysis (GalCer and SFT). Typically, brain and plasma samples were also collected for test article exposure.
(§1) Mass Spectrometer Analysis of SFT
(§2) Quantitative analysis of sphingolipids (SLs) was performed using liquid chromatography with tandem mass spectrometry analysis (LC-MS/MS). Briefly, to extract glucosylceramide (GlcCer), galactosylceramide (GalCer), and sulfatide (ST), an aliquot of 10 μL of mouse tissue homogenate (100 mg/ml in water) was mixed with 1 mL of extraction solution (0.2% Formic Acid; 5 mM Ammonium formate in (50:50) Methanol:Acetonitrile (v/v) with internal standards (IS)). C17-ST and D35 labeled C18-GalCer were used for IS. The mixtures were vortexed and centrifuged. The resulting supernatants were transferred to HPLC vials for LC-MS/MS analysis. GlcCer and GalCer were separated using a Waters Acquity UPLC and Atlantis HILIC Silica column (2.1 mm×150 mm, […], Waters Corp., Milford, Mass.) and analyzed by an API 5000 triple quadrupole mass spectrometer in MRM mode (Applied Biosystems, Foster City, Calif.). ST were analyzed using a Waters Acquity UPLC and BEH C18 column (2.1 mm×50 mm, […], Waters Corp., Milford, Mass.) and analyzed by an API 6500 triple quadrupole mass spectrometer in MRM mode (Applied Biosystems, Foster City, Calif.).

UGT8 [3] = target: T2, UGT8; test: Acute in vivo target engagement in neonatal mouse brain: inhibition of de novo GalCer and SFT synthesis (13C-Gal incorporation); conditions: neonatal mouse (P14-P21) brain, 5 hr
Source text: SFT biosynthesis and turnover in the myelin of adult mice is very low, necessitating development of a short-term acute model of de novo synthesis inhibition. To do this, we took advantage of the fact that unlike primates in which most developmental myelination occurs in utero, in rodents, peak myelination occurs between postnatal day 14 (P14) and P22.
Groups of 5 neonatal mice age-matched between P14 and P21 received test article formulated in a clinically-acceptable formulation, administered by oral gavage; the control group received vehicle alone. One hr after administration of test article, animals received an i.p. injection of 13C-Gal (3 g/kg); 5 hr after administration of test article, animals were euthanized, brains were removed and dissected for recovery of mid- and hind brain which was snap-frozen and stored at −80° C. until analysis. Plasma samples were also collected for test article exposure analysis.
as §1, §2

Compound | IC50 (UGT8 [1]) | kidney GalCer % inh (UGT8 [2]; single oral dose 1 mg/kg) | kidney Sulfatide % inh (UGT8 [2]; single oral dose 1 mg/kg) | kidney GalCer % inh (UGT8 [2]; single oral dose 3 mg/kg) | kidney Sulfatide % inh (UGT8 [2]; single oral dose 3 mg/kg) | kidney GalCer % inh (UGT8 [2]; single oral dose 10 mg/kg) | kidney Sulfatide % inh (UGT8 [2]; single oral dose 10 mg/kg) | brain GalCer % inh (UGT8 [3]; single oral dose 3 mg/kg) | brain Sulfatide % inh (UGT8 [3]; single oral dose 3 mg/kg) | brain GalCer % inh (UGT8 [3]; single oral dose 10 mg/kg) | brain Sulfatide % inh (UGT8 [3]; single oral dose 10 mg/kg) | brain GalCer % inh (UGT8 [3]; single oral dose 30 mg/kg) | brain Sulfatide % inh (UGT8 [3]; single oral dose 30 mg/kg) | kidney GalCer % inh (UGT8 [2]; single oral dose 30 mg/kg) | kidney Sulfatide % inh (UGT8 [2]; single oral dose 30 mg/kg) | other results
CNC(=O)c1csc2c(C(F)(F)F)cc(N3CCC(OC(=O)NC(C)C)CC3)nc12 [Example 76, 1-(3-(Methylcarbamoyl)-7-(trifluoromethyl)thieno[3,2-b]pyridin-5-yl)piperidin-4-yl isopropylcarbamate] | < 100 nM | C (C < 40%) | C (C < 40%) | B (40% < B < 80%) | B (40% < B < 80%) | B (40% < B < 80%) | B (40% < B < 80%) | B (40% < B < 80%) | B (40% < B < 80%) | A (A > 80%) | A (A > 80%) | A (A > 80%) | A (A > 80%) |  |  | 
CNC(=O)c1csc2c(C(F)(F)F)cc(O[C@@H]3CCN(C(=O)OCCOC(F)(F)F)[C@H](C)C3)nc12 [Example 375, 2-(Trifluoromethoxy)ethyl (2R,4R)-2-methyl-4-((3-(methylcarbamoyl)-7-(trifluoromethyl)thieno[3,2-b]pyridin-5-yl)oxy)piperidine-1-carboxylate] | < 100 nM | C (C < 40%) | C (C < 40%) | C (C < 40%) | C (C < 40%) | B (40% < B < 80%) | B (40% < B < 80%) | B (40% < B < 80%) | B (40% < B < 80%) | A (A > 80%) | A (A > 80%) |  |  | A (A > 80%) | A (A > 80%) | kidney GalCer % inh (UGT8 [2]; single oral dose 100 mg/kg): A (A > 80%); kidney Sulfatide % inh (UGT8 [2]; single oral dose 100 mg/kg): A (A > 80%); brain GalCer % inh (UGT8 [3]; single oral dose 1 mg/kg): B (40% < B < 80%); brain Sulfatide % inh (UGT8 [3]; single oral dose 1 mg/kg): B (40% < B < 80%)
CNC(=O)c1csc2c(C(F)(F)F)cc(N3CCC(OC(=O)N[C@@H](C)C4CC4)CC3)nc12 [Example 109, 1-(3-(Methylcarbamoyl)-7-(trifluoromethyl)thieno[3,2-b]pyridin-5-yl)piperidin-4-yl (S)-(1-cyclopropylethyl)carbamate] | < 100 nM |  |  |  |  | B (40% < B < 80%) |  |  |  | B, B, B (40% < B < 80%) | A, A, A (A > 80%) | B, B, B (40% < B < 80%) | A, A, A (A > 80%) |  |  | kidney GalCer % inh (UGT8 [2]; single oral dose 5 mg/kg): C (C < 40%); kidney GalCer % inh (UGT8 [2]; single oral dose 50 mg/kg): A (A > 80%); brain GalCer % inh (UGT8 [3]; single oral dose 100 mg/kg): B, B, B (40% < B < 80%); brain Sulfatide % inh (UGT8 [3]; single oral dose 100 mg/kg): A, A, A (A > 80%)
CNC(=O)c1csc2c(C(F)(F)F)cc(N3CCC(OC(=O)N[C@@H](C)CF)CC3)nc12 [Example 693, [1-[3-(Methylcarbamoyl)-7-(trifluoromethyl)thieno[3,2-b]pyridin-5-yl]-4-piperidyl] N-[(1S)-2-fluoro-1-methyl-ethyl]carbamate] | < 100 nM | C (C < 40%) | C (C < 40%) | C (C < 40%) | C (C < 40%) | B (40% < B < 80%) | A (A > 80%) |  |  |  |  |  |  |  |  | 
CNC(=O)c1csc2c(C(F)(F)F)cc(N3CCC(OC(=O)N[C@@H](C)COC(F)(F)F)CC3)nc12 [Example 90, 1-(3-(Methylcarbamoyl)-7-(trifluoromethyl)thieno[3,2-b]pyridin-5-yl)piperidin-4-yl (S)-(1-(trifluoromethoxy)propan-2-yl)carbamate] | < 100 nM | C (C < 40%) | B (40% < B < 80%) | A (A > 80%) | A (A > 80%) | A (A > 80%) | A (A > 80%) | A, A, A (A > 80%) | A, A, A (A > 80%) | A, A, A (A > 80%) | A, A, A (A > 80%) | A, A, A (A > 80%) | A, A, A (A > 80%) | A (A > 80%) | A (A > 80%) | kidney GalCer % inh (UGT8 [2]; single oral dose 0.3 mg/kg): C (C < 40%); kidney Sulfatide % inh (UGT8 [2]; single oral dose 0.3 mg/kg): C (C < 40%)
CNC(=O)c1csc2c(C(F)(F)F)cc(N3CC[C@H](OC(=O)NC(C)C)[C@@H](F)C3)nc12 [Example 496, (3S,4S)-3-Fluoro-1-(3-(methylcarbamoyl)-7-(trifluoromethyl)thieno[3,2-b]pyridin-5-yl)piperidin-4-yl isopropylcarbamate] | < 100 nM |  |  |  |  | A, A, A (A > 80%) | A, A, A (A > 80%) |  |  |  |  |  |  | A, A, A (A > 80%) | A, A, A (A > 80%) | kidney GalCer % inh (UGT8 [2]; single oral dose 100 mg/kg): A, A, A (A > 80%); kidney Sulfatide % inh (UGT8 [2]; single oral dose 100 mg/kg): A, A, A (A > 80%)
CNC(=O)c1csc2c(C(F)(F)F)cc(N3CCC(OC(=O)NCC4CC4)CC3)nc12 [Example 475, 1-(3-(Methylcarbamoyl)-7-(trifluoromethyl)thieno[3,2-b]pyridin-5-yl)piperidin-4-yl (cyclopropylmethyl)carbamate trifluoroacetate] |  |  |  | C (C < 40%) |  | B (40% < B < 80%) |  |  |  |  |  |  |  |  |  | kidney GalCer % inh (UGT8 [2]; single oral dose 50 mg/kg): B (40% < B < 80%)
